From patent publication US20030166601A1, “Novel colloid synthetic vectors for gene therapy” (priority 1999, published 2003)
One block for each molecule: values may come before it.

Tests used:
[1] = Particle size of substituted aminoethanol-DNA complexes; assay type: physicochemical
From the text: The component streams intersect in the mixer, whereby shearing and mixing of the DNA and polymer are induced, whereby particles of a complex of DNA and polymer are formed. The resulting preparations may be tested for mean particle size in nanometers and distribution through dynamic light scattering using, for example, a Coulter N4 Plus Submicron Particle Sizer (Coulter Corporation, Miami, Fla.). Mean particle sizes and standard deviaitons can be determined by the unimodal and Size Distribution Processing (SDP), or “intensity” methods.
In the above methods, a laser is directed through a preparation of the particles. Dynamic light scattering is measured as a result of the Brownian motion of the particles. The dynamic light scattering-which is measured then is correlated-to particle size. In the unimodal method, the size distribution is determined by placing the sizes of the particles on a Gaussian curve. In the SDP method, size distribution is determined by a FORTRAN program called CONTIN. Such methods also are described further in the Coulter N4 Plus Submicron Particle Sizer Reference Manual (November 1995).
(§1) Substituted aminoethanols lacking long chain hydrocarbon (aliphatic) substitutients were used to compact plasmid DNA into a colloidal dispersion in water. The size and zeta potential of the colloidal dispersions prepared were determined at different charge ratios for added cation (amine) to anion (DNA phosphate) and are shown in Table 1 and FIG. 4. The colloidal dispersions prepared permit compaction of the DNA into core complexes that are suitable for the invention.

[2] = Zeta potential of substituted aminoethanol-DNA complexes; assay type: physicochemical; conditions: in mV (unit assumed)
Procedure: as §1

CHO (Sst2) cells = test: Transfection of CHO (Sst2) cells with peptide ligand complexes, luciferase; assay type: cell-based; conditions: polylysine core complexes; FIG. 26
From the text: K14RGD peptide containing the amino acid sequence: KKK KKK KKK KKK KKS CRG DC (SEQ ID NO:5) with at least 90% purity was synthesized at Alpha Diagnostic International (San Antonio, Tex.). Peptide K14SMT contains the amino acid sequence: KKK KKK KKK KKK KKA d-FCY d-WKT CT (SEQ ID NO:6), and peptide K14MST contains the amino acid sequence KKK KKK KKK KKK KKA TDC RGE CF (SEQ ID NO:7). Both SMT and MST peptides were synthesized at Genemed Synthesis Inc (CA, South San Francisco) and oxidized to make circularized peptide. The peptide was purified to 90% purity by the provider. CHO (Sst+) cell line was obtained from Novartis Oncology (Dr. Friedrich Raulf). The cell line was selected to stable express human somatostatin receptor Sst2.
10000 CHO (Sst2) cells were cultured in a serum-containing medium with 0.4 mg/ml G418 for 12 hr before transfection in each well of a 96 well plate. The medium was changed to a serum free medium before transfection. Peptide was added to the cell at indicated amounts from 1 ug to 10 ug/well and incubated for 30 min before 0.5 ug pCIluc2 was added to the same medium to transfect the cells. Lipofectin at 4 ul was used as the control.
At 24 hr, luciferase activity was measured with Promega luciferase assay kit according to the recommended procedure.

cultured cells = test: Transfection of cultured cells, luciferase activity; assay type: cell-based
From the text: The gene delivery ability of substituted aminoethanols with long chain hydrocarbon (aliphatic) substitutients was studied by transfection of cultured cells and then in vivo by intravenous injection (Table 2 and 3). The substituted aminoethanols have two hydrophilic polar heads connected with one hydrophobic body, which was named bihead lipids. Bihead lipids are proposed to form a monolayer membrane.

CD-1 mice = test: Luciferase expression in organs after intravenous injection of pCILuc complexes; assay type: in vivo; conditions: for Luciferase RLU/20 ul lysate heart / Luciferase RLU/20 ul lysate kidney / Luciferase RLU/20 ul lysate liver / Luciferase RLU/20 ul lysate lung / Luciferase RLU/20 ul lysate spleen: 40 μg pCILuc i.v., 5 h
Procedure: Substituted aminoethanols (cationic compounds) were prepared as described in Examples 1-34. Their gene delivery ability was studied in vivo by intravenous injection (Table 1 and 2) using a standard method. The preparations were administered via tail vein injection to mice and gene expression determined after 5 hours. Female CD-1 mice, 13-15 g, were purchased from Charles River Inc. Forty microgram of pCILuc complexed with GC lipids or GC lipid:Chol dispersion as indicated weight ratios. After 5 h, mice were sacrificed and organs were collected. Organs were homogenized in 0.5 ml of lysis buffer and 20 μl of supernatant was used for luciferase assay. Luciferase activity was represented as a mean of relative light unit (RLU) of four mice. The lipids were either used alone or combined with cholesterol and complexed with a luciferase reporter gene plasmid by a standard procedure at a range of weight and charge ratios. For the in vivo screen, 40 μg of pCILuc was complexed with the formulation and injected into the mice.
All compounds were evaluated for in vivo activity. Two critical factors were examined, formulation with or without cholesterol and the ratio of cationic lipid to DNA. Cholesterol was tested at 1:1 mole ratio of lipid:chol. The studies were performed with a dose of 40 μg of pCILuc complexed with cationic lipid or lipid: Chol (1:1 mole ratio) injected i.v. into CD-1 mice and then luciferase activity in different organs determined 5 h later. The first evaluation included all of 14 GC-lipids at weight ratios of 2 and 10 (GC lipid to DNA). It was performed by four separated experiments. Each time cationic liposome DOTAP:Chol was used as a standard control.
Measurements were repeated with lipids GC-030, GC-034 and GC-029 at wider weight ratios than the first experiment. Luciferase activity is represented as a mean of relative light unit (RLU) of four mice. WR means weight ratio of GC lipids to DNA. The transfection activity was represented by luciferase activity RLU/organ. […] The transfection activity increased with the increased weight ratio (GC lipids to DNA). Inclusion of cholesterol can change the biodistribution of gene expression in the different organs examined. […] However this function of cholesterol was not seen with GC-034.

Particle Size ([1]; charge ratio (+/−) 1.0): 77.6 nm
Particle Size ([1]; charge ratio (+/−) 1.5): 192.4 nm
Particle Size ([1]; charge ratio (+/−) 2.0): 293.3 nm
Particle Size ([1]; charge ratio (+/−) 3.0): 3946.4 nm
Particle Size ([1]; charge ratio (+/−) 4.0): 4304.7 nm
Zeta Potential ([2]; charge ratio (+/−) 0.5): −17.6
Zeta Potential ([2]; charge ratio (+/−) 1.0): −15.4
Zeta Potential ([2]; charge ratio (+/−) 1.5): −9.1
Zeta Potential ([2]; charge ratio (+/−) 2.0): −8.71
Zeta Potential ([2]; charge ratio (+/−) 3.0): −6.01
Zeta Potential ([2]; charge ratio (+/−) 4.0): −5.52
Molecule: C(CNCCC1CCCCN1)CNCCC1CCCCN1 (stereo not drawn) [CGP 61670A]

Particle Size ([1]; charge ratio (+/−) 0.5): 176.7 nm
Particle Size ([1]; charge ratio (+/−) 1.0): 77.6 nm
Particle Size ([1]; charge ratio (+/−) 1.5): 90.3 nm
Particle Size ([1]; charge ratio (+/−) 2.0): 206.8 nm
Particle Size ([1]; charge ratio (+/−) 3.0): 1941.8 nm
Particle Size ([1]; charge ratio (+/−) 4.0): 2526.8 nm
Zeta Potential ([2]; charge ratio (+/−) 0.5): −47.3
Zeta Potential ([2]; charge ratio (+/−) 1.0): −30
Zeta Potential ([2]; charge ratio (+/−) 1.5): −25
Zeta Potential ([2]; charge ratio (+/−) 2.0): −17.1
Zeta Potential ([2]; charge ratio (+/−) 3.0): −11.7
Zeta Potential ([2]; charge ratio (+/−) 4.0): −9.78
Molecule: CCN(CCCNCCCNCN(CC)C(=O)CN)C(=O)CN [CGP 61750A]

Second part, the molecule before the results:

Molecule: CCNCCCNCCCCNCCCNCC [CGP 41660A]
Particle Size ([1]; charge ratio (+/−) 0.5): 136 nm
Particle Size ([1]; charge ratio (+/−) 1.0): 62.6 nm
Particle Size ([1]; charge ratio (+/−) 1.5): 93.4 nm
Particle Size ([1]; charge ratio (+/−) 2.0): 573.5 nm
Particle Size ([1]; charge ratio (+/−) 3.0): 987.4 nm
Particle Size ([1]; charge ratio (+/−) 4.0): 4959 nm
Zeta Potential ([2]; charge ratio (+/−) 0.5): −40.9
Zeta Potential ([2]; charge ratio (+/−) 1.0): −8.72
Zeta Potential ([2]; charge ratio (+/−) 1.5): −7.67
Zeta Potential ([2]; charge ratio (+/−) 2.0): −7.08
Zeta Potential ([2]; charge ratio (+/−) 3.0): −5.03
Zeta Potential ([2]; charge ratio (+/−) 4.0): −4.87

Molecule: KKK KKK KKK KKK KKA d-FCY d-WKT CT [SMT]
expression, effect of peptide ligand (CHO (Sst2) cells): increased expression

Molecule: CCCCCCCCCCCCC(O)CN(CCCN)CCCCCCCCCCCCCN(CCCN)CC(O)CCCCCCCCCCCC (stereo not drawn) [CGP47204A]
Luciferase activity Ave. RLU × 10000/well FBS(+) (cultured cells; charge ratio (+/−) 0.5): 11 RLU × 10000/well
Luciferase activity Ave. RLU × 10000/well FBS(−) (cultured cells; charge ratio (+/−) 0.5): 33 RLU × 10000/well
Luciferase activity Ave. RLU × 10000/well FBS(+) (cultured cells; charge ratio (+/−) 1): 821 RLU × 10000/well
Luciferase activity Ave. RLU × 10000/well FBS(−) (cultured cells; charge ratio (+/−) 1): 737 RLU × 10000/well
Luciferase activity Ave. RLU × 10000/well FBS(+) (cultured cells; charge ratio (+/−) 2): 8,079 RLU × 10000/well
Luciferase activity Ave. RLU × 10000/well FBS(−) (cultured cells; charge ratio (+/−) 2): 8,386 RLU × 10000/well
Luciferase activity Ave. RLU × 10000/well FBS(+) (cultured cells; charge ratio (+/−) 4): 13,088 RLU × 10000/well
Luciferase activity Ave. RLU × 10000/well FBS(−) (cultured cells; charge ratio (+/−) 4): 15,009 RLU × 10000/well
Luciferase activity Ave. RLU × 10000/well FBS(+) (cultured cells; charge ratio (+/−) 6): 22,694 RLU × 10000/well
Luciferase activity Ave. RLU × 10000/well FBS(−) (cultured cells; charge ratio (+/−) 6): 20,091 RLU × 10000/well
Luciferase activity Ave. RLU × 10000/well FBS(+) (cultured cells; charge ratio (+/−) 8): 21,644 RLU × 10000/well
Luciferase activity Ave. RLU × 10000/well FBS(−) (cultured cells; charge ratio (+/−) 8): 17,740 RLU × 10000/well
Luciferase RLU/20 ul lysate heart (CD-1 mice; CR 0.5): 38 RLU/20 ul lysate
Luciferase RLU/20 ul lysate kidney (CD-1 mice; CR 0.5): 39 RLU/20 ul lysate
Luciferase RLU/20 ul lysate liver (CD-1 mice; CR 0.5): 45 RLU/20 ul lysate
Luciferase RLU/20 ul lysate lung (CD-1 mice; CR 0.5): 44 RLU/20 ul lysate
Luciferase RLU/20 ul lysate spleen (CD-1 mice; CR 0.5): 80 RLU/20 ul lysate
Luciferase RLU/20 ul lysate heart (CD-1 mice; CR 1): 41 RLU/20 ul lysate
Luciferase RLU/20 ul lysate kidney (CD-1 mice; CR 1): 38 RLU/20 ul lysate
Luciferase RLU/20 ul lysate liver (CD-1 mice; CR 1): 53 RLU/20 ul lysate
Luciferase RLU/20 ul lysate lung (CD-1 mice; CR 1): 51 RLU/20 ul lysate
Luciferase RLU/20 ul lysate spleen (CD-1 mice; CR 1): 467 RLU/20 ul lysate
Luciferase RLU/20 ul lysate heart (CD-1 mice; CR 4): 129 RLU/20 ul lysate
Luciferase RLU/20 ul lysate kidney (CD-1 mice; CR 4): 386 RLU/20 ul lysate
Luciferase RLU/20 ul lysate liver (CD-1 mice; CR 4): 4,583 RLU/20 ul lysate
Luciferase RLU/20 ul lysate lung (CD-1 mice; CR 4): 5,009 RLU/20 ul lysate
Luciferase RLU/20 ul lysate spleen (CD-1 mice; CR 4): 5,594 RLU/20 ul lysate
Luciferase RLU/20 ul lysate heart (CD-1 mice; CR 10): 983 RLU/20 ul lysate
Luciferase RLU/20 ul lysate kidney (CD-1 mice; CR 10): 156 RLU/20 ul lysate
Luciferase RLU/20 ul lysate liver (CD-1 mice; CR 10): 3,270 RLU/20 ul lysate
Luciferase RLU/20 ul lysate lung (CD-1 mice; CR 10): 38,115 RLU/20 ul lysate
Luciferase RLU/20 ul lysate spleen (CD-1 mice; CR 10): 6,378 RLU/20 ul lysate
Luciferase RLU/20 ul lysate heart (CD-1 mice; CR 20): 96 RLU/20 ul lysate
Luciferase RLU/20 ul lysate kidney (CD-1 mice; CR 20): 113 RLU/20 ul lysate
Luciferase RLU/20 ul lysate liver (CD-1 mice; CR 20): 429 RLU/20 ul lysate
Luciferase RLU/20 ul lysate lung (CD-1 mice; CR 20): 3,258 RLU/20 ul lysate
Luciferase RLU/20 ul lysate spleen (CD-1 mice; CR 20): 779 RLU/20 ul lysate
expression in vivo by core complexes (CD-1 mice; mouse, in vivo): exhibit expression in vivo

Molecule: KKK KKK KKK KKK KKA TDC RGE CF [MST]
expression, effect of peptide ligand (CHO (Sst2) cells): not observed
